{
  "source": "patent US20190247361A1",
  "about": "“OXYTOCIN ANTAGONIST DOSING REGIMENS FOR PROMOTING EMBRYO IMPLANTATION AND PREVENTING MISCARRIAGE” (ObsEva S.A., priority 2016, published 2019)",
  "key": {"CYP2D6": {"molecular_target": "CYP2D6 (Homo sapiens, UniProt P10635)", "sequence (P10635 whole entry, canonical isoform)": "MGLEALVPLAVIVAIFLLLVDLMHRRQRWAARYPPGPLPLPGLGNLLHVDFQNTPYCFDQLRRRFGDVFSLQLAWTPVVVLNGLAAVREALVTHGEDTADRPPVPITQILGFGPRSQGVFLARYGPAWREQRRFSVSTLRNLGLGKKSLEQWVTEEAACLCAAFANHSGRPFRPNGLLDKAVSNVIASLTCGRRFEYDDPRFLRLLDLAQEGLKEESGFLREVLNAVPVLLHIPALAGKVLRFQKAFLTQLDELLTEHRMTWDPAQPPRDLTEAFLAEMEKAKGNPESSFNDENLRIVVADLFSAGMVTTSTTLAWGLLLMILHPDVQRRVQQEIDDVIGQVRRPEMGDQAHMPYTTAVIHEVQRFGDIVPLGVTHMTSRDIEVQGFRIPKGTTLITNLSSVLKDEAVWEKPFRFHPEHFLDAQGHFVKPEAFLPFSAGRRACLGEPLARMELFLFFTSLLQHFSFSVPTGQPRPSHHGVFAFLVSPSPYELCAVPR", "test": "metabolism by CYP2D6 isoform", "assay_type": "in vitro ADME", "conditions": "for Compound Remaining (% of compound present at t = 0 min): 5 μM", "description": "(§1) At five time points over the course of a 45 minute experiment, the compounds were analyzed by LC-MS/MS. The percentage of each compound remaining at each time point, along with the metabolic half-lives of each compound in the presence of each cytochrome P450 isoform, are indicated in Tables 10-12, below."}, "CYP3A4": {"molecular_target": "CYP3A4 (Homo sapiens, UniProt P08684)", "sequence (P08684 whole entry, canonical isoform)": "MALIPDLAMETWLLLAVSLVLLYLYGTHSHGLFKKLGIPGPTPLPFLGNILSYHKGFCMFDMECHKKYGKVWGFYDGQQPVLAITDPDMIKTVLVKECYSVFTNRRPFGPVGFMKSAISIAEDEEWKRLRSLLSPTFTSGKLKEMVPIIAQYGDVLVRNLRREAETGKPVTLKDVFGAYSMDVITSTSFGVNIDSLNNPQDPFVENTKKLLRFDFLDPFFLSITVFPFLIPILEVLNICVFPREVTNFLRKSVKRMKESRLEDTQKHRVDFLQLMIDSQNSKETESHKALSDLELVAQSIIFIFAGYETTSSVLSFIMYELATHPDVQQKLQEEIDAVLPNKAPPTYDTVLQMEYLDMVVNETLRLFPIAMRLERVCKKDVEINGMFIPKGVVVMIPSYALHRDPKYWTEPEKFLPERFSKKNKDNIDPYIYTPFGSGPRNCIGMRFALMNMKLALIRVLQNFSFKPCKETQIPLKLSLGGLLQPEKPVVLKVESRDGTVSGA", "test": "metabolism by CYP3A4 isoform", "assay_type": "in vitro ADME", "conditions": "for Compound Remaining (% of compound present at t = 0 min): 5 μM", "description": "as §1"}},
  "data": [
    {"smiles": "CO/N=C1/C[C@@H](CO)N(C(=O)c2ccc(-c3ccccc3C)cc2)C1", "note": "[Compound (II), (3Z,5S)-5-(hydroxymethyl)-1-[(2′-methyl-1,1′-biphenyl-4-yl)carbonyl]pyrrolidin-3-one O-methyloxime]", "values": [
      {"measurement": "Compound Remaining (% of compound present at t = 0 min)", "setting": "CYP2D6; 0 min", "result": 100, "unit": "%"},
      {"measurement": "Compound Remaining (% of compound present at t = 0 min)", "setting": "CYP2D6; 5 min", "result": 80.3, "unit": "%"},
      {"measurement": "Compound Remaining (% of compound present at t = 0 min)", "setting": "CYP2D6; 15 min", "result": 50.5, "unit": "%"},
      {"measurement": "Compound Remaining (% of compound present at t = 0 min)", "setting": "CYP2D6; 30 min", "result": 22.5, "unit": "%"},
      {"measurement": "Compound Remaining (% of compound present at t = 0 min)", "setting": "CYP2D6; 45 min", "result": 12.2, "unit": "%"},
      {"measurement": "half-life at 5 μM", "setting": "CYP2D6; human", "result": 14.5, "unit": "min"},
      {"measurement": "Compound Remaining (% of compound present at t = 0 min)", "setting": "CYP3A4; 0 min", "result": 100, "unit": "%"},
      {"measurement": "Compound Remaining (% of compound present at t = 0 min)", "setting": "CYP3A4; 5 min", "result": 86.5, "unit": "%"},
      {"measurement": "Compound Remaining (% of compound present at t = 0 min)", "setting": "CYP3A4; 15 min", "result": 75.9, "unit": "%"},
      {"measurement": "Compound Remaining (% of compound present at t = 0 min)", "setting": "CYP3A4; 30 min", "result": 67.3, "unit": "%"},
      {"measurement": "Compound Remaining (% of compound present at t = 0 min)", "setting": "CYP3A4; 45 min", "result": 63.9, "unit": "%"},
      {"measurement": "half-life at 5 μM", "setting": "CYP3A4; human", "result": 73.7, "unit": "min"}
    ]}
  ]
}
